Legend:
[1] = Protein binding in rat plasma assessed as unbound fraction at 5 uM incubated for 16 hrs under shaking condition by LC/MS/MS based rapid equilibrium dialysis method; format: ADME, cell-free
[2] = Protein binding in mouse plasma at 5 uM incubated for 16 hrs under shaking condition by LC/MS/MS based rapid equilibrium dialysis method; format: ADME, cell-free; conditions: read-out: PPB (converted)
[3] = Cmax in Beagle dog at 10 mg/kg, po after 0.25 to 144 hrs by LC-MS/MS analysis; format: ADME, organism-based, Canis lupus familiaris; design: dose 10 mg/kg, route oral; conditions: in vivo
[4] = Clearance in Wistar rat at 1 mg/kg, iv after 0.083 to 144 hrs by LC-MS/MS analysis; format: ADME, organism-based; conditions: in vivo
[5] = Clearance in Beagle dog at 1 mg/kg, iv after 0.083 to 144 hrs by LC-MS/MS analysis; format: ADME, organism-based, Canis lupus familiaris; conditions: in vivo
[6] = Drug concentration in Wistar rat brain at 10 mg/kg, po after 8 hrs by LC-MS/MS analysis; format: ADME, organism-based; conditions: read-out: Drug uptake
[7] = Tmax in Wistar rat brain at 10 mg/kg, po after 1 to 144 hrs by LC-MS/MS analysis; format: ADME, organism-based
Cytochrome P450 2D6 = Cytochrome P450 2D6 (Homo sapiens, UniProt P10635); assay: Inhibition of CYP2D6 (unknown origin) up to 10 uM; format: ADME
Sequence of Cytochrome P450 2D6 (P10635 whole entry): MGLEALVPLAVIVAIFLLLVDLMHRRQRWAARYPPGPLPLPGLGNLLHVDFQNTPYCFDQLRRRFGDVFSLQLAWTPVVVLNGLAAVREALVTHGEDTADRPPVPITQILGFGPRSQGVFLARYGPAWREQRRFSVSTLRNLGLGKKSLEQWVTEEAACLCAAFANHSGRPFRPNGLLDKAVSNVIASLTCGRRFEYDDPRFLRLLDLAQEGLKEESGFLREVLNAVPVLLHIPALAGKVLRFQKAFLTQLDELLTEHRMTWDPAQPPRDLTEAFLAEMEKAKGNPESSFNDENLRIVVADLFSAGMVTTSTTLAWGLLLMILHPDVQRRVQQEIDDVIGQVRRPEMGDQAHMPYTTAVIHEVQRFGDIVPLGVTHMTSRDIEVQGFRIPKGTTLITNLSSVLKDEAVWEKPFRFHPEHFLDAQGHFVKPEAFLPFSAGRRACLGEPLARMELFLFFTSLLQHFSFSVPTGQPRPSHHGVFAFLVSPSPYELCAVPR

Cytochrome P450 1A2 = target: T1, Cytochrome P450 1A2 (Homo sapiens, UniProt P05177); assay: Inhibition of CYP1A2 (unknown origin) up to 10 uM; format: ADME
T1 sequence (P05177 whole entry): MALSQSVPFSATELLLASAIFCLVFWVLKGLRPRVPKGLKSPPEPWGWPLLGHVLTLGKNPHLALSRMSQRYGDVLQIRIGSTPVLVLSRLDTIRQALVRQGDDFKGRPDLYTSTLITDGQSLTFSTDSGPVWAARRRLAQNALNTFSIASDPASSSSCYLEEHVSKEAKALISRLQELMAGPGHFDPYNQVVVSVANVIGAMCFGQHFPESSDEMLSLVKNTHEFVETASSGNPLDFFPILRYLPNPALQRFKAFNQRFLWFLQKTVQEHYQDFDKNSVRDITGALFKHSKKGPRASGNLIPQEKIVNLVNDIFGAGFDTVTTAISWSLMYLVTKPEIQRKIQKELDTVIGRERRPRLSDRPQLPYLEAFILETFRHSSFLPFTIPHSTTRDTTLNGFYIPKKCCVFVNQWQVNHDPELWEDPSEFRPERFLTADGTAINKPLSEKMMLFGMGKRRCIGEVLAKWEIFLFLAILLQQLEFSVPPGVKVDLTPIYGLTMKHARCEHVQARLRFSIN

Cytochrome P450 2C9 = Cytochrome P450 2C9 (Homo sapiens, UniProt P11712); assay: Inhibition of CYP2C9 (unknown origin) up to 10 uM; format: ADME
Sequence of Cytochrome P450 2C9 (P11712 whole entry): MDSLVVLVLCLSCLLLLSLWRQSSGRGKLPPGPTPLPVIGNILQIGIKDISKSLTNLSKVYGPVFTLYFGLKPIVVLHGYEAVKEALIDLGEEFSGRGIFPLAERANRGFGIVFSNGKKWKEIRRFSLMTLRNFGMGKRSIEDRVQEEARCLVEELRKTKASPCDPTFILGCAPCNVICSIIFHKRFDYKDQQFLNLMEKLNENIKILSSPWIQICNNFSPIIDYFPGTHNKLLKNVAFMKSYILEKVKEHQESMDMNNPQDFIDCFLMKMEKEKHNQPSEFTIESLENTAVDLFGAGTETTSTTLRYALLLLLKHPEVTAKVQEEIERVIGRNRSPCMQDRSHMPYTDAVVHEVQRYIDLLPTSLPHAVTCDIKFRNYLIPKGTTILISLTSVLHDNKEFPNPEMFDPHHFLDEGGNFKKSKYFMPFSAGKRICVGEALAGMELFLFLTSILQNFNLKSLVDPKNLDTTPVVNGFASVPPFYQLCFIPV

Rattus norvegicus [8] = assay: Memory enhancement effect in time-delay induced Wistar rat model of amnesia assessed as exploration time for object2 in acquisition trial at 3 mg/kg, po administered as single dose and measured on day 8 by novel object recognition test (reference value: 16.33 sec); format: functional
Rattus norvegicus [9] = assay: Memory enhancement effect in scopolamine-induced Wistar rat model of amnesia assessed as exploration time for object1 in acquisition trial at 0.05 mg/kg, po administered as single dose and measured on day 8 by novel object recognition test (reference value: 16.11 sec); format: functional
Rattus norvegicus [10] = assay: Memory enhancement effect in time-delay induced Wistar rat model of amnesia assessed as exploration time for object1 at 3 mg/kg, po administered as single dose after acquisition trial by novel object recognition test (reference value: 19.09 sec); format: functional
Rattus norvegicus [11] = assay: Memory enhancement effect in time-delay induced Wistar rat model of amnesia assessed as exploration time for novel object at 3 mg/kg, po administered as single dose after acquisition trial by novel object recognition test (reference value: 12.81 sec); format: functional
Rattus norvegicus [12] = assay: Memory enhancement effect in time-delay induced Wistar rat model of amnesia assessed as exploration time for object1 at 1 mg/kg, po administered as single dose after acquisition trial by novel object recognition test (reference value: 19.09 sec); format: functional
Rattus norvegicus [13] = assay: Memory enhancement effect in time-delay induced Wistar rat model of amnesia assessed as increase in novel object discrimination at 1 mg/kg, po administered as single dose after acquisition trial by novel object recognition test (reference value: 0.08); format: functional
Rattus norvegicus [14] = assay: Memory enhancement effect in time-delay induced Wistar rat model of amnesia assessed as exploration time for object2 in acquisition trial at 0.05 mg/kg, po for 7 days and measured on day 8 by novel object recognition test (reference value: 11.76 sec); format: functional
Rattus norvegicus [15] = assay: Memory enhancement effect in time-delay induced Wistar rat model of amnesia assessed as exploration time for object1 in acquisition trial at 0.5 mg/kg, po for 7 days and measured on day 8 by novel object recognition test (reference value: 13.73 sec); format: functional
Rattus norvegicus [16] = assay: Memory enhancement effect in time-delay induced Wistar rat model of amnesia assessed as increase in discrimination index at 0.05 mg/kg, po for 7 days and measured on day 8 by novel object recognition test (reference value: 0.12); format: functional
Rattus norvegicus [17] = assay: Memory enhancement effect in scopolamine-induced Wistar rat model of amnesia assessed as exploration time for familiar object in retention trial at 0.05 mg/kg, po for 7 days and measured on day 8 by novel object recognition test (reference value: 8.59 sec); format: functional
Rattus norvegicus [18] = assay: Memory enhancement effect in scopolamine-induced Wistar rat model of amnesia assessed as increase in discrimination index at 0.05 mg/kg, po for 7 days and measured on day 8 by novel object recognition test (reference value: 0.21); format: functional
Rattus norvegicus [19] = assay: Memory enhancement effect in scopolamine-induced Wistar rat model of amnesia assessed as increase in discrimination index at 0.5 mg/kg, po for 7 days and measured on day 8 by novel object recognition test (reference value: 0.21); format: functional
Rattus norvegicus [20] = assay: Improvement in social recognition time delay-induced Sprague-Dawley rat model of amnesia assessed as increase in reduction in social investigation time at 3 mg/kg, po administered as single dose prior to 1 hr training and measured after 30 mins (reference value: 0.39%); format: functional; design: scale not given: the % may be the effect or the level left
Rattus norvegicus [21] = assay: Improvement in social recognition time delay-induced Sprague-Dawley rat model of amnesia assessed as reduction in recognition index 3 mg/kg, po administered as single dose prior to 1 hr training and measured after 30 mins (reference value: 1); format: functional
Rattus norvegicus [22] = assay: Improvement in social recognition time delay-induced Sprague-Dawley rat model of amnesia assessed as reduction in recognition index at 1 mg/kg, po administered as single dose prior to 1 hr training and measured after 30 mins (reference value: 1); format: functional
Rattus norvegicus [23] = assay: Improvement in social recognition scopolamine-induced Sprague-Dawley rat model of amnesia assessed as increase in reduction in social investigation time at 3 mg/kg, po administered as single dose prior to 1 hr training and measured after 30 mins (reference value: 9.81%); format: functional; design: scale not given: the % may be the effect or the level left
Rattus norvegicus [24] = assay: Improvement in social recognition scopolamine-induced Sprague-Dawley rat model of amnesia assessed as reduction in recognition index at 1 mg/kg, po administered as single dose prior to 1 hr training and measured after 30 mins (reference value: 0.9); format: functional
[25] = Drug level in Sprague-Dawley rat plasma at 0.15 mg/kg, po for 7 days; format: ADME, organism-based
[26] = Drug level in scopolamine-induced Sprague-Dawley rat brain at 0.05 mg/kg, po for 7 days; format: ADME, organism-based; conditions: read-out: Drug uptake

Question: Which fraction unbound at 16 h, 5 µM [1] does the source give for `CCC(=O)c1sc(-c2ccc(Cl)cc2)c(C)c1-c1ccc(S(N)(=O)=O)cc1` here?
Answer: 0.0058

Question: And the fraction unbound at 16 h, 5 µM [2]?
Answer: 0.0116

Question: And the Cmax [3]?
Answer: 5000 nM

Question: And the clearance [4]?
Answer: 1.3 mL/min/kg

Question: What about the clearance [5] of the same compound?
Answer: 0.7 mL/min/kg

Question: What about the concentration at 8 h [6] of the same compound?
Answer: 6390 nM

Question: And the Tmax [7]?
Answer: 4 h

Question: What about the “inhibition (INH)” value (Cytochrome P450 2D6) of the same compound?
Answer: Not Active

Question: And the “inhibition (INH)” value (Cytochrome P450 1A2)?
Answer: Not Active

Question: What about the “inhibition (INH)” value (Cytochrome P450 2C9) of the same compound?
Answer: Not Active

Question: And the Time (Rattus norvegicus [8])?
Answer: 19.43 s

Question: And the Time (Rattus norvegicus [9])?
Answer: 16.07 s

Question: And the Time (Rattus norvegicus [10])?
Answer: 17.81 s

Question: What about the Time (Rattus norvegicus [11]) of the same compound?
Answer: 18.61 s

Question: What about the Time (Rattus norvegicus [12]) of the same compound?
Answer: 20.6 s

Question: And the Activity_index (Rattus norvegicus [13])?
Answer: 0.38

Question: And the Time (Rattus norvegicus [14])?
Answer: 15.41 s

Question: And the Time (Rattus norvegicus [15])?
Answer: 10.04 s

Question: What about the Activity_index (Rattus norvegicus [16]) of the same compound?
Answer: 0.27

Question: And the Time (Rattus norvegicus [17])?
Answer: 8.03 s

Question: And the Activity_index (Rattus norvegicus [18])?
Answer: 0.3

Question: And the Activity_index (Rattus norvegicus [19])?
Answer: 0.45

Question: And the Activity (Rattus norvegicus [20])?
Answer: 52.87%

Question: What about the Activity_index (Rattus norvegicus [21]) of the same compound?
Answer: 0.47

Question: What about the Activity_index (Rattus norvegicus [22]) of the same compound?
Answer: 0.68

Question: And the Activity (Rattus norvegicus [23])?
Answer: 55.09%

Question: And the Activity_index (Rattus norvegicus [24])?
Answer: 0.52

Question: What about the concentration at 168 h [25] of the same compound?
Answer: 320 nM

Question: And the concentration at 168 h [26]?
Answer: 250 nM
